Measured values: patent publication US11109592B2, “Selective weed control methods” (Corteva Agriscience LLC, priority 2013, dated 2021)
Where two headings read alike, the source gives them in different places.

Legend:
[1] = test system: wild buckwheat (Polygonum convolvulus L.); test: Field trial in sugar beet, visual control of wild buckwheat; format: in vivo; settings: 36 days following last application
Source text: (§1) As used herein, selective post-emergent control of undesirable vegetation means preventing, reducing, killing, or otherwise adversely modifying the development of the undesirable vegetation in the presence of crop plants with limited adverse effect on the crop plants. For example, a broadleaf weed control of 80% (rated visually) with crop injury of less than or equal to 20%, rated visually, would constitute selective control. In some embodiments the adverse effect on crop plants is limited to less than 10% visually rated crop injury. […] Visual weed control is a composite rating accounting for reductions in pest plant biomass and/or stand reduction.
(§2) Treatments 4 and 5 were split applications at the two indicated growth stages.

[2] = test system: yellow mustard (Sinapis alba); test: Field trial, crop injury to and yield of yellow mustard, post-emergence; settings: B14-B15 crop stage
[3] = test system: spring kale (Brassica oleracea); test: Field trial, crop injury to spring kale, post-emergence; format: in vivo; settings: B12-B16 crop stage
Source text: Data from the trials on spring kale (Brassica oleracea) are summarized Table 4.

[4] = test system: Winfred forage brassica (Brassica rapa × oleracea); test: Field trial, crop injury to Winfred forage brassica, post-emergence; format: in vivo; settings: B14-B16 crop stage, Australia
[5] = test system: spring sorghum (Sorghum vulgare); test: Field trial, crop injury to spring sorghum, post-emergence; settings: B17-B22 crop stage
[6] = test system: spring turnip (Brassica rapa); settings: for Percent (%) Crop Injury (Mean Value): B12-B16 crop stage; for injury to turnip, on average did not exceed: three field trials
[7] = test system: spring rutabaga (Brassica napus); settings: for Percent (%) Crop Injury (Mean Value): B12-B14 crop stage; for injury to rutabaga, on average did not exceed: three field trials
[8] = test system: Juncea canola (Brassica juncea); settings: for Percent (%) Crop Injury (Mean Value): B12-B14 crop stage; for injury to Juncea canola, on average did not exceed: five field trials
[9] = test system: spring sunflower (Helianthus annuus); test: Field trial, crop injury to spring sunflower, post-emergence; settings: B12-B14 crop stage, Australia
[10] = test system: common lambsquarters (Chenopodium album L.); test: Field trial in sugar beet, visual control of common lambsquarters; format: in vivo; settings: 36 days following last application
Source text: as §1, §2

[11] = test system: sunflowers, sorghum, yellow mustard, Brassicaceae-family crops, and sugar beets; test: Overall crop safety, post-emergence application; format: in vivo; settings: post-emergence application rates of ≤10 g ae/ha
[12] = test system: broadleaf weeds including cleavers (Galium aparine), chickweed (Stellaria media), pigweed (Amaranthus spp.), lamb's-quarters (Chenopodium album) and others; test: Efficacy on commercially relevant broadleaf weeds; format: in vivo; settings: application rate of 2.5 to 10 g ae/ha
[13] = test system: certain members of the Amaranthaceae, Asteraceae, Lamiaceae, Rubiaceae, Papaveraceae and Brassicaceae families; test: Herbicidal activity (LD90) on plant families; format: in vivo; settings: grams acid equivalent per hectare
[14] = treatment 1: 1.0 g ae/ha at BEAVA stage B12-B16
[15] = treatment 2: 2.0 g ae/ha at BEAVA stage B12-B16
[16] = treatment 3: 3.0 g ae/ha at BEAVA stage B12-B16
[17] = treatment 4: split application 0.5 g ae/ha at B10-B12 and 0.5 g ae/ha at B12-B16
[18] = treatment 5: split application 1.0 g ae/ha at B10-B12 and 1.0 g ae/ha at B12-B16
[19] = rate 2.5 (g ae/ha), 1 week after application
[20] = rate 2.5, 3-5 weeks after application
[21] = rate 5, 1 week after application
[22] = rate 5, 3-5 weeks after application
[23] = rate 10, 1 week after application
[24] = rate 10, 3-5 weeks after application
[25] = rate 20, 1 week after application
[26] = rate 20, 3-5 weeks after application
[27] = rate 2.5, 6-10 weeks after application
[28] = rate 5, 6-10 weeks after application
[29] = rate 10, 6-10 weeks after application
[30] = rate 2.5 (g ae/ha), 3-5 weeks after application
[31] = rate 20, 6-10 weeks after application

SMILES: COC(=O)c1nc(-c2ccc(Cl)c(OC)c2F)cc(N)c1Cl [4-Amino-3-chloro-6-(4-chloro-2-fluoro-3-methoxyphenyl)pyridine-2-carboxylic acid methyl ester]
- Percent (%) Visual Control POLCO [1, 14]: 5%
- Percent (%) Visual Control POLCO [1, 15]: 22.5%
- Percent (%) Visual Control POLCO [1, 16]: 60%
- Percent (%) Visual Control POLCO [1, 17]: 20%
- Percent (%) Visual Control POLCO [1, 18]: 35%
- Percent (%) Crop Injury (Mean Value of Four Observations) [2, 19]: 8.5%
- Percent (%) Crop Injury (Mean Value of Four Observations) ([2]; rate 2.5, 2 weeks after application): 4.8%
- Percent (%) Crop Injury (Mean Value of Four Observations) [2, 20]: 4.5%
- Percent (%) Crop Injury (Mean Value of Four Observations) [2, 21]: 14.3%
- Percent (%) Crop Injury (Mean Value of Four Observations) ([2]; rate 5, 2 weeks after application): 10%
- Percent (%) Crop Injury (Mean Value of Four Observations) [2, 22]: 7.5%
- Percent (%) Crop Injury (Mean Value of Four Observations) [2, 23]: 21.3%
- Percent (%) Crop Injury (Mean Value of Four Observations) ([2]; rate 10, 2 weeks after application): 25%
- Percent (%) Crop Injury (Mean Value of Four Observations) [2, 24]: 16.3%
- Percent (%) Crop Injury (Mean Value of Four Observations) [2, 25]: 23.8%
- Percent (%) Crop Injury (Mean Value of Four Observations) ([2]; rate 20, 2 weeks after application): 35%
- Percent (%) Crop Injury (Mean Value of Four Observations) [2, 26]: 25%
- Percent (%) Crop Injury (Mean Value) [3, 19]: 2.5%
- Percent (%) Crop Injury (Mean Value) [3, 20]: 0%
- Percent (%) Crop Injury (Mean Value) [3, 21]: 1.3%
- Percent (%) Crop Injury (Mean Value) [3, 22]: 1.3%
- Percent (%) Crop Injury (Mean Value) [3, 23]: 2.5%
- Percent (%) Crop Injury (Mean Value) [3, 24]: 3.8%
- Percent (%) Crop Injury (Mean Value) [3, 25]: 15%
- Percent (%) Crop Injury (Mean Value) [4, 27]: 7.5%
- Percent (%) Crop Injury (Mean Value) [4, 22]: 9.2%
- Percent (%) Crop Injury (Mean Value) [4, 28]: 7.5%
- Percent (%) Crop Injury (Mean Value) [4, 24]: 8.8%
- Percent (%) Crop Injury (Mean Value) [4, 29]: 0%
- Percent (%) Crop Injury (Mean Value) [4, 26]: 11.3%
- Percent (%) Crop Injury (Mean Value) [5, 30]: 8.3%
- Percent (%) Crop Injury (Mean Value) [5, 27]: 13.3%
- Percent (%) Crop Injury (Mean Value) [5, 22]: 11.7%
- Percent (%) Crop Injury (Mean Value) [5, 28]: 18.3%
- Percent (%) Crop Injury (Mean Value) [5, 24]: 18.3%
- Percent (%) Crop Injury (Mean Value) [5, 29]: 15%
- Percent (%) Crop Injury (Mean Value) [5, 26]: 13.3%
- Percent (%) Crop Injury (Mean Value) [5, 31]: 15%
- Percent (%) Crop Injury (Mean Value) [6, 19]: 2.5%
- Percent (%) Crop Injury (Mean Value) [6, 20]: 2.5%
- Percent (%) Crop Injury (Mean Value) [6, 21]: 5%
- Percent (%) Crop Injury (Mean Value) [6, 22]: 1.3%
- Percent (%) Crop Injury (Mean Value) [6, 23]: 7.5%
- Percent (%) Crop Injury (Mean Value) [6, 24]: 7.5%
- Percent (%) Crop Injury (Mean Value) [6, 26]: 7.5%
- Percent (%) Crop Injury (Mean Value) [7, 19]: 6.3%
- Percent (%) Crop Injury (Mean Value) [7, 20]: 3.8%
- Percent (%) Crop Injury (Mean Value) [7, 21]: 10%
- Percent (%) Crop Injury (Mean Value) [7, 22]: 3.3%
- Percent (%) Crop Injury (Mean Value) [7, 23]: 15%
- Percent (%) Crop Injury (Mean Value) [7, 24]: 7.5%
- Percent (%) Crop Injury (Mean Value) [7, 25]: 27.5%
- Percent (%) Crop Injury (Mean Value) [7, 26]: 15%
- Percent (%) Crop Injury (Mean Value) [8, 19]: 2.5%
- Percent (%) Crop Injury (Mean Value) [8, 20]: 7.5%
- Percent (%) Crop Injury (Mean Value) [8, 27]: 5%
- Percent (%) Crop Injury (Mean Value) [8, 21]: 3.8%
- Percent (%) Crop Injury (Mean Value) [8, 22]: 10.5%
- Percent (%) Crop Injury (Mean Value) [8, 28]: 11.3%
- Percent (%) Crop Injury (Mean Value) [8, 23]: 3.8%
- Percent (%) Crop Injury (Mean Value) [8, 24]: 5.5%
- Percent (%) Crop Injury (Mean Value) [8, 29]: 3.8%
- Percent (%) Crop Injury (Mean Value) [8, 25]: 30%
- Percent (%) Crop Injury (Mean Value) [8, 26]: 13.8%
- Percent (%) Crop Injury (Mean Value) [8, 31]: 0%
- Percent (%) Crop Injury (Mean Value) [9, 30]: 6.7%
- Percent (%) Crop Injury (Mean Value) [9, 27]: 6.7%
- Percent (%) Crop Injury (Mean Value) [9, 22]: 13.3%
- Percent (%) Crop Injury (Mean Value) [9, 28]: 11.7%
- Percent (%) Crop Injury (Mean Value) [9, 24]: 15%
- Percent (%) Crop Injury (Mean Value) [9, 29]: 8.3%
- Percent (%) Crop Injury (Mean Value) [9, 26]: 22.3%
- Percent (%) Crop Injury (Mean Value) [9, 31]: 6.7%
- Percent (%) Visual Control CHEAL [10, 14]: 35%
- Percent (%) Visual Control CHEAL [10, 15]: 98%
- Percent (%) Visual Control CHEAL [10, 16]: 95.8%
- Percent (%) Visual Control CHEAL [10, 17]: 30%
- Percent (%) Visual Control CHEAL [10, 18]: 96.8%

SMILES: COc1c(Cl)ccc(-c2cc(N)c(Cl)c(C(=O)O)n2)c1F [Compound I, 4-amino-3-chloro-6-(4-chloro-2-fluoro-3-methoxyphenyl)pyridine-2-carboxylic acid]
- crop injury [11]: little to no crop injury
- injury to turnip, on average did not exceed ([6]; 2.5 g ae/ha): ≤ 2.5%
- injury to turnip, on average did not exceed ([6]; 5 g ae/ha): ≤ 5%
- injury to turnip, on average did not exceed ([6]; 10 g ae/ha): ≤ 7.5%
- injury to rutabaga, on average did not exceed ([7]; 2.5 g ae/ha): ≤ 6.3%
- injury to rutabaga, on average did not exceed ([7]; 5 g ae/ha): ≤ 10%
- injury to rutabaga, on average did not exceed ([7]; 10 g ae/ha): ≤ 15%
- efficacy on commercially relevant broadleaf weeds [12]: highly efficacious
- injury to Juncea canola, on average did not exceed ([8]; 2.5 g ae/ha): ≤ 7.5%
- injury to Juncea canola, on average did not exceed ([8]; 5 g ae/ha): ≤ 11.3%
- injury to Juncea canola, on average did not exceed ([8]; 10 g ae/ha): ≤ 5.5%
- LD90 [13]: ≤ 10 g ae/ha
